What all share (type): binding
Conditions in all cases: Compound Concentration 10 µM

Assay [1] deals with T1, panel of 442 kinases (Homo sapiens, UniProt P11309).
T1 construct: purchased KINOMEscan
From the text:
(§1) We assessed the selectivity of members of this scaffold using the KINOMEscan methodology across a near comprehensive panel of 442 kinases [[18,27]].

For assay [2], the target named is T2, panel of 442 kinases (Homo sapiens, UniProt Q5VT25).
T2 construct: purchased KINOMEscan
From the text: as §1

Assay [3] concerns the target T3, panel of 442 kinases (Homo sapiens, UniProt Q9BZL6).
T3 construct: purchased KINOMEscan
T3 sequence (Q9BZL6 1-878): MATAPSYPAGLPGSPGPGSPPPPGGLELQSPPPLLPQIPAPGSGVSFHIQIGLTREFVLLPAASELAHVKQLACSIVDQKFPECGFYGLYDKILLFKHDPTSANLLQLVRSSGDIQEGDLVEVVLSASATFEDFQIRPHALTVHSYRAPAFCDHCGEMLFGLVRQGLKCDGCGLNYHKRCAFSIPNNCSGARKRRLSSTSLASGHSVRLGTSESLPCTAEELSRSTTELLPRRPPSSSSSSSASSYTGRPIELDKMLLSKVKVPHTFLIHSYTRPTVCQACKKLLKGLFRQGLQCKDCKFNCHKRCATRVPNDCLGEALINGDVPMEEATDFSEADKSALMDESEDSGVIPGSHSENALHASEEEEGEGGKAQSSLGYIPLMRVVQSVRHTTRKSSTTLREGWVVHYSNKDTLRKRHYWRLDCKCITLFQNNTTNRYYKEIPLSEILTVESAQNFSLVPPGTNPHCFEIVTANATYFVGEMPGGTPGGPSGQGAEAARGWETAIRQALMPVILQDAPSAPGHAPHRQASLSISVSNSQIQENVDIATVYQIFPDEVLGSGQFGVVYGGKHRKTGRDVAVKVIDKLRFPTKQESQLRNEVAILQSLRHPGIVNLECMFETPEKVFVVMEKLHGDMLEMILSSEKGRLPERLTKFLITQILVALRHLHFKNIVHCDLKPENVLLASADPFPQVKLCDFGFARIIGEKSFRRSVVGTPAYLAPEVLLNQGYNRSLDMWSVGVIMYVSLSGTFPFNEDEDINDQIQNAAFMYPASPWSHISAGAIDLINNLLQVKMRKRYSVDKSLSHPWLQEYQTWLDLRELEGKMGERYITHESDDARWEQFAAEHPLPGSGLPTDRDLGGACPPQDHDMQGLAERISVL
From the text: as §1

The structures appear in SMILES notation.

T2 sequence (Q5VT25 whole entry): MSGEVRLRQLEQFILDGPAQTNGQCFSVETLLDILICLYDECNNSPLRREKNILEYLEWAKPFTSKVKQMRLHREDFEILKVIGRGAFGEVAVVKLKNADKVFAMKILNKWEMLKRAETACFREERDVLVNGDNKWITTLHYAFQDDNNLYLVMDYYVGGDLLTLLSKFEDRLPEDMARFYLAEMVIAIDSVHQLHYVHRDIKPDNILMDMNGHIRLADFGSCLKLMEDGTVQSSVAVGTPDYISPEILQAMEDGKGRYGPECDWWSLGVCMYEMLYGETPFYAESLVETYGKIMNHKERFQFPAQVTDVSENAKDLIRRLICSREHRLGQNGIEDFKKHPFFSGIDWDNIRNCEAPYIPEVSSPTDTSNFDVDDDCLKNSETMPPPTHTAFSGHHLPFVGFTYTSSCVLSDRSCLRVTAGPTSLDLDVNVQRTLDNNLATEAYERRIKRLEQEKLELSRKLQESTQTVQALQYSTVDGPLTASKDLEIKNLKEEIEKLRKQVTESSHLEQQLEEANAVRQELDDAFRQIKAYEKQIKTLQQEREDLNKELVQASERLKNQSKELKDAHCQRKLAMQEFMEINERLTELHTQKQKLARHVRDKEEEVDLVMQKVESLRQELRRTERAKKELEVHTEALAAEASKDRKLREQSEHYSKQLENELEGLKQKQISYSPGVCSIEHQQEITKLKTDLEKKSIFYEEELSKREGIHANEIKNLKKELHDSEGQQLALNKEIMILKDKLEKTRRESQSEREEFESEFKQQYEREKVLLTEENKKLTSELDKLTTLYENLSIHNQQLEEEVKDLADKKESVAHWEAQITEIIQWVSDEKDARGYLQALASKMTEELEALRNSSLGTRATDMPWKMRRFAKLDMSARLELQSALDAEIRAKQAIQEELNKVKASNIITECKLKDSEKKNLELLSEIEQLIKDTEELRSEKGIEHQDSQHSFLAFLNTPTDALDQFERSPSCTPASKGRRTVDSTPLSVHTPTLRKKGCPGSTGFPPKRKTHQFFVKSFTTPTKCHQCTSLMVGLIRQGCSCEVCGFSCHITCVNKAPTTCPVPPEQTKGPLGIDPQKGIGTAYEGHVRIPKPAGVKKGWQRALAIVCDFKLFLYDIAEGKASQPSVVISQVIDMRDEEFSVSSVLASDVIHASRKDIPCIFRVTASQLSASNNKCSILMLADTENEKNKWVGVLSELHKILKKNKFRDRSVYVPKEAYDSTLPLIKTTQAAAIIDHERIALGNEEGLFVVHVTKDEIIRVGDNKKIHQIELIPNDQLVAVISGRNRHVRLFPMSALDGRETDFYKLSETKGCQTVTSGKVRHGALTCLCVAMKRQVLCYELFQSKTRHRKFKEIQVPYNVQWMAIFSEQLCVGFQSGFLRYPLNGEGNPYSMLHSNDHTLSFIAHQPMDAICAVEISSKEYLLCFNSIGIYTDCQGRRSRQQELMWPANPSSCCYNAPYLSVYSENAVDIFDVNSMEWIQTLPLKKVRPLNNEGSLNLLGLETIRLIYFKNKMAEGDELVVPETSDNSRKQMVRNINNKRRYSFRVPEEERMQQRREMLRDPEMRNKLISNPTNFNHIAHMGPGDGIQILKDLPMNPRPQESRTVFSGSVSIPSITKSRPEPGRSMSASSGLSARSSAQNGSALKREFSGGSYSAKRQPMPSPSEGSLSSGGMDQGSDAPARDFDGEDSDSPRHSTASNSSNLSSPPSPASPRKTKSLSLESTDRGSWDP
T1 sequence (P11309 whole entry): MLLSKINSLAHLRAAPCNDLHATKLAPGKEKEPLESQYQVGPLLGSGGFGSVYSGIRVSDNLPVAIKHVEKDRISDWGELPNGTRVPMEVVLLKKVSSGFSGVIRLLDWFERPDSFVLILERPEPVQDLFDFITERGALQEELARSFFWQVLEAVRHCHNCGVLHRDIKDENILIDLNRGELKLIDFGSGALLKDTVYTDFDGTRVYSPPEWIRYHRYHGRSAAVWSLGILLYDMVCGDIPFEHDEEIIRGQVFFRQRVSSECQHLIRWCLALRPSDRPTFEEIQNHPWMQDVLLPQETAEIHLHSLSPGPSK

In the case of `COc1cc(C(=O)N2CCC(N3CCN(C)CC3)CC2)ccc1Nc1ncc2c(n1)N(C)c1ccccc1C(=O)N2C` [15 (LRRK2-IN-1)], the “KINOMEscan: PIM1” value at panel of 442 kinases [1] amounted to 100. For the same compound, the “KINOMEscan: MRCKA” value at panel of 442 kinases [2] is on record as 100. The “KINOMEscan: PRKD2” value at panel of 442 kinases [3] is recorded as 59.

For the compound `COc1cc(C(=O)N2CCC(N3CCN(C)CC3)CC2)ccc1Nc1ncc2c(n1)N1CCc3cccc(c31)C(=O)N2C` [Compound 24], on panel of 442 kinases [3], the “KINOMEscan: PRKD2” value is 30.

`COc1cc(C(=O)N2CCC(N3CCN(C)CC3)CC2)ccc1Nc1ncc2c(n1)N(C1CCCC1)c1ccccc1C(=O)N2C` [Compound 25, 11-cyclopentyl-2-((2-methoxy-4-(4-(4-methylpiperazin-1-yl)piperidine-1-carbonyl)phenyl)amino)-5-methyl-5H-benzo[e]pyrimido[5,4-b][1,4]diazepin-6(11H)-one]: the “KINOMEscan: PIM1” value on panel of 442 kinases [1] was 97. The “KINOMEscan: MRCKA” value at panel of 442 kinases [2] was 100. Further, the “KINOMEscan: PRKD2” value at panel of 442 kinases [3] is on record as 87.

Regarding `CCOc1cc(C(=O)N2CCC(N3CCN(C)CC3)CC2)ccc1Nc1ncc2c(n1)N(C1CCCC1)c1ccccc1C(=O)N2C` [Compound 26], the “KINOMEscan: PIM1” value at panel of 442 kinases [1] is given as 100. Also, the “KINOMEscan: MRCKA” value on panel of 442 kinases [2] was determined as 100. On panel of 442 kinases [3], the “KINOMEscan: PRKD2” value is recorded as 100.

The record behind these values is paper PMC3914206.
